Measurements taken from PubChem BioAssay (NCI).
Values joined by “and” are separate entries in the source; they are usually repeats but may differ in a detail not shown here. Equal entries are not always repeated.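 Each compound was tested at five concentrations against cells in 96-well plates for 48 hours. At the GI50, growth is halved. TGI denotes the concentration required for complete inhibition of growth.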

Key:
Experiment in all cases: DTP human tumour cell line panel, 48 h
786-0 renal = tested on: 786-0 renal
A498 renal = tested on: A498 renal
CCRF-CEM leukemia = tested on: CCRF-CEM leukemia
K-562 leukemia = tested on: K-562 leukemia
KM12 colon = tested on: KM12 colon
LOX IMVI melanoma = tested on: LOX IMVI melanoma
NCI-H460 lung = tested on: NCI-H460 lung
OVCAR-5 ovarian = tested on: OVCAR-5 ovarian
RPMI-8226 leukemia = tested on: RPMI-8226 leukemia
UO-31 renal = tested on: UO-31 renal

Cc1ccc(NC(=O)SCCC(=O)O)cc1NC(=O)SCCC(=O)O
TGI (786-0 renal): > 100 µM | TGI (A498 renal): > 100 µM | TGI (CCRF-CEM leukemia): > 100 µM | TGI (K-562 leukemia): > 100 µM | TGI (KM12 colon): > 100 µM | TGI (LOX IMVI melanoma): > 100 µM | TGI (NCI-H460 lung): > 100 µM | TGI (OVCAR-5 ovarian): > 100 µM | TGI (RPMI-8226 leukemia): > 100 µM | TGI (UO-31 renal): > 100 µM

CCN(C)S(=O)(=O)Nc1cccc(Nc2ncnc3cc(NC(=O)CCl)ccc23)c1Cl
GI50 (786-0 renal): 0.973 µM | TGI (786-0 renal): 4.04 µM | GI50 (A498 renal): 5.02 µM | TGI (A498 renal): 24.8 µM | GI50 (CCRF-CEM leukemia): 0.656 µM | TGI (CCRF-CEM leukemia): 3.77 µM | GI50 (K-562 leukemia): 1.1 µM | TGI (K-562 leukemia): > 25 µM | GI50 (KM12 colon): 4.39 µM | TGI (KM12 colon): 12.2 µM | GI50 (LOX IMVI melanoma): 1.01 µM | TGI (LOX IMVI melanoma): 4.44 µM | GI50 (NCI-H460 lung): 3.57 µM | TGI (NCI-H460 lung): 8.6 µM | GI50 (OVCAR-5 ovarian): 2.62 µM | TGI (OVCAR-5 ovarian): 6.76 µM | GI50 (RPMI-8226 leukemia): 1.21 µM | TGI (RPMI-8226 leukemia): 5.42 µM | GI50 (UO-31 renal): 4.17 µM | TGI (UO-31 renal): 7.93 µM

O=C(Nc1ccc(-n2cc(-c3ccncc3)c(-c3ccc(Cl)c(O)c3)n2)cc1)c1cc(Cl)cc(Cl)c1
GI50 (786-0 renal): 1.53 µM | TGI (786-0 renal): 4.23 µM | GI50 (A498 renal): 17.3 µM | TGI (A498 renal): > 100 µM | GI50 (CCRF-CEM leukemia): 4.25 µM | TGI (CCRF-CEM leukemia): > 100 µM | GI50 (K-562 leukemia): 1.11 µM | TGI (K-562 leukemia): > 100 µM | GI50 (KM12 colon): 2.72 µM | TGI (KM12 colon): > 29.4 µM | GI50 (LOX IMVI melanoma): 1.19 µM | TGI (LOX IMVI melanoma): 2.62 µM | GI50 (NCI-H460 lung): 4.03 µM | TGI (NCI-H460 lung): > 100 µM | GI50 (OVCAR-5 ovarian): 8.42 µM | TGI (OVCAR-5 ovarian): 97.5 µM | GI50 (RPMI-8226 leukemia): 0.793 µM | TGI (RPMI-8226 leukemia): 4.14 µM | GI50 (UO-31 renal): 3.94 µM | TGI (UO-31 renal): > 100 µM

C=CC(=O)Nc1cc2c(Nc3ccc(OCc4ccccn4)c(Cl)c3)ncnc2cc1OCCN1CCOCC1
GI50 (786-0 renal): 1.7 µM | TGI (786-0 renal): > 83.3 µM | GI50 (A498 renal): 1.48 µM | TGI (A498 renal): 7.23 µM | GI50 (CCRF-CEM leukemia): 2.98 µM | TGI (CCRF-CEM leukemia): > 100 µM | GI50 (K-562 leukemia): 2.79 µM | TGI (K-562 leukemia): > 100 µM | GI50 (KM12 colon): 5.04 µM | TGI (KM12 colon): > 100 µM | GI50 (LOX IMVI melanoma): 1.81 µM | TGI (LOX IMVI melanoma): 5.83 µM | GI50 (NCI-H460 lung): 4.28 µM | TGI (NCI-H460 lung): > 100 µM | GI50 (OVCAR-5 ovarian): 15.6 µM | TGI (OVCAR-5 ovarian): > 100 µM | GI50 (RPMI-8226 leukemia): 2.15 µM | TGI (RPMI-8226 leukemia): > 27.6 µM | GI50 (UO-31 renal): 0.646 µM | TGI (UO-31 renal): > 100 µM

CC/C(=C(\c1ccc(O)cc1)c1ccc(OCCNC)cc1)c1ccccc1
GI50 (786-0 renal): 1.73 µM and 1.72 µM | TGI (786-0 renal): 3.13 µM and 3.19 µM and 3.35 µM | GI50 (A498 renal): 2.33 µM and 1.84 µM | TGI (A498 renal): 10.2 µM and 4.12 µM and 8.67 µM | GI50 (CCRF-CEM leukemia): 2.96 µM and 2.56 µM and 2.75 µM | TGI (CCRF-CEM leukemia): 11 µM and 8.6 µM and 7.58 µM | GI50 (K-562 leukemia): 2 µM and 1.74 µM and 2.11 µM | TGI (K-562 leukemia): 4.88 µM and 3.89 µM and 5.66 µM | GI50 (KM12 colon): 1.7 µM and 1.64 µM and 1.81 µM | TGI (KM12 colon): 3.15 µM and 3.14 µM and 3.49 µM | GI50 (LOX IMVI melanoma): 1.47 µM and 1.45 µM and 1.73 µM | TGI (LOX IMVI melanoma): 2.79 µM and 2.77 µM and 3.22 µM | GI50 (NCI-H460 lung): 1.98 µM and 1.83 µM and 1.89 µM | TGI (NCI-H460 lung): 3.67 µM and 3.45 µM and 3.66 µM | GI50 (OVCAR-5 ovarian): 2.82 µM and 2.44 µM and 2.09 µM | TGI (OVCAR-5 ovarian): 8.23 µM and 6.35 µM and 4.77 µM | GI50 (RPMI-8226 leukemia): 2.08 µM and 1.99 µM and 2.27 µM | TGI (RPMI-8226 leukemia): 5.05 µM and 4.58 µM and 5.73 µM | GI50 (UO-31 renal): 1.54 µM and 1.32 µM and 1.67 µM | TGI (UO-31 renal): 4.41 µM and 3 µM and 3.57 µM

N#Cc1cccc(Nc2nccc(-c3cnn4ncccc34)n2)c1
GI50 (786-0 renal): 0.00608 µM | TGI (786-0 renal): > 25 µM | GI50 (A498 renal): 0.00371 µM | TGI (A498 renal): 0.0091 µM | GI50 (CCRF-CEM leukemia): 0.006 µM | TGI (CCRF-CEM leukemia): > 25 µM | GI50 (K-562 leukemia): 0.00782 µM | TGI (K-562 leukemia): > 25 µM | GI50 (KM12 colon): 0.00632 µM | TGI (KM12 colon): 0.0263 µM | GI50 (LOX IMVI melanoma): 0.00279 µM | TGI (LOX IMVI melanoma): > 8.75 µM | GI50 (NCI-H460 lung): 0.00837 µM | TGI (NCI-H460 lung): > 25 µM | GI50 (OVCAR-5 ovarian): 0.00823 µM | TGI (OVCAR-5 ovarian): > 25 µM | GI50 (RPMI-8226 leukemia): 0.00763 µM | TGI (RPMI-8226 leukemia): 0.0212 µM | GI50 (UO-31 renal): 0.00719 µM | TGI (UO-31 renal): > 25 µM
